Source: PubChem BioAssay (NCI)
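Tested at 5 concentrations; 48 h exposure; 96-well plates; endpoints linearly interpolated, else capped at highest concentration. GI50 marks 50% less growth. TGI: total growth inhibition.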 Where a SMILES comes first, the peptide text is derived from it. The star is where a group is joined. OSu = O=C1CCC(=O)N1O*

Experiments:
Test in all cases: NCI-60 cell line screen, 48 h
[1] = test system: HL-60(TB) leukemia
[2] = test system: A498 renal
[3] = test system: 786-0 renal
[4] = test system: UACC-62 melanoma
[5] = test system: K-562 leukemia
[6] = test system: SF-268 CNS
[7] = test system: U251 CNS
[8] = test system: OVCAR-5 ovarian
[9] = test system: MOLT-4 leukemia
[10] = test system: M14 melanoma
[11] = test system: IGROV1 ovarian

SMILES	TGI [1] [µM]	TGI [2] [µM]	TGI [3] [µM]	TGI [4] [µM]	TGI [5] [µM]	TGI [6] [µM]	TGI [7] [µM]	TGI [8] [µM]	TGI [9] [µM]	TGI [10] [µM]	TGI [11] [µM]	GI50 [1] [µM]	GI50 [2] [µM]	GI50 [5] [µM]	GI50 [6] [µM]	GI50 [7] [µM]	GI50 [8] [µM]	GI50 [9] [µM]	GI50 [10] [µM]	GI50 [11] [µM]
COc1cc(C2c3cc4c(cc3[C@@H](N(C)c3ccc(N(C)C)cc3)C3COC(=O)C23)OCO4)cc(OC)c1O (stereo partly drawn)	7.84	> 100	26.4	23.1	30.6	6.85	1.45	31.3	25.8	14.5	31.5	–	–	–	–	–	–	–	–	–
C=CCn1c(=N)/c(=C(\N)O)s/c1=C1/SC(=S)N(c2ccc(C)cc2)C1=O	> 100	> 100	–	> 100	> 100	> 100	> 100	> 100	> 100	–	> 100	–	–	–	–	–	–	–	–	–
C=C(C)C(=O)OC1C[C@H](COC(C)=O)C2CC=C(CO)C2C2OC(=O)C(=C)[C@H]12 (stereo partly drawn)	76	> 100	97.1	> 100	54.4	60.2	> 100	> 100	45.7	31	> 100	–	–	–	–	–	–	–	–	–
C[n+]1ccccc1/C1=c2\cc/c([nH]2)=C(\c2cccc[n+]2C)C2=N/C(=C(/c3cccc[n+]3C)C3C=CC(N3)/C(c3cccc[n+]3C)=C3/C=CC1=N3)C=C2	> 100	> 100	> 100	> 100	> 100	> 100	> 100	> 100	> 100	> 100	> 100	–	–	–	–	–	–	–	–	–
O=C(NC1(C(=O)O)CCCC1)c1ccccc1	> 100	> 100	> 100	> 100	> 100	> 100	> 100	> 100	> 100	> 100	> 100	–	–	–	–	–	–	–	–	–
O=C1C(Cl)=C(NCCF)C(=O)c2ncccc21	> 10	> 10	3.21	2.68	2.82	4.22	2.8	3.29	3.72	3.15	3.43	–	–	–	–	–	–	–	–	–
CN(C)c1ccc(/C=C(\NC(=O)c2ccccc2)C(=O)NC(Cc2c[nH]c3ccccc23)C(=O)O)cc1 (stereo not drawn)	> 100	> 100	> 100	> 100	> 100	> 100	> 100	> 100	> 100	> 100	> 100	–	–	–	–	–	–	–	–	–
C/C(O)=C(\C=NC(=S)c1ccncc1)C(=O)Nc1ccccc1C	> 100	> 100	> 100	> 100	–	> 100	> 100	> 100	–	> 100	> 100	–	–	–	–	–	–	–	–	–
COC(=O)C1(O)C(c2ccccc2)NC2(C)CCCC21 (stereo not drawn)	> 100	> 100	> 100	> 100	–	> 100	> 100	–	> 100	> 100	> 100	–	–	–	–	–	–	–	–	–
COc1ccccc1C1C(C#N)=C(N)Oc2cc(O)ccc21 (stereo not drawn)	> 100	> 100	–	–	> 100	91	62.6	> 100	45.4	35	25.4	18.8	36.8	4.68	19.4	19.8	29.2	13.1	13.4	1.98
Cc1cc2nnc(C(N)=O)c(N)c2cc1C	> 100	> 100	68.3	> 100	> 100	> 100	> 100	> 100	> 100	> 100	> 100	–	–	–	–	–	–	–	–	–
CC(=O)c1c(O)n(-c2ccc(C)cc2)c(=O)c2c(N)n[nH]c12	> 100	> 100	> 100	> 100	> 100	> 100	> 100	> 100	> 100	> 100	> 100	–	–	–	–	–	–	–	–	–
CN(C)N=Nc1ccc2[nH]c(=O)[nH]c2c1	83.7	> 100	> 100	> 100	> 100	> 100	> 100	> 100	–	> 100	> 100	–	–	–	–	–	–	–	–	–
Cc1ccc(C(=O)N/N=C2/C(=O)c3c4ccccc4cc4cccc2c34)cc1	> 100	> 100	74.1	> 93.1	> 100	88.2	> 67.3	> 100	> 100	> 100	> 85.2	–	–	–	–	–	–	–	–	–
CC[n+]1c(/C=C/c2ccc(N(CCCl)CCCl)cc2)ccc2cc(I)ccc21	0.675	13.1	–	1.68	1.6	–	–	7.77	3.03	–	8.27	–	–	–	–	–	–	–	–	–
OC12c3ccccc3C1CCCCCC21OCCCO1 (stereo not drawn)	> 100	> 100	> 100	> 100	> 100	> 100	> 100	> 100	> 100	> 100	> 100	–	–	–	–	–	–	–	–	–
COc1ccc2oc(C(=O)N3CC(CCl)c4ccc(N)cc43)cc2c1 (stereo not drawn)	15.6	0.865	0.277	0.496	> 63.4	9.61	15.2	> 41	5.44	–	0.782	–	–	–	–	–	–	–	–	–
O=c1[nH]c(=O)n([C@@H]2O[C@H](CO)[C@@H](O)[C@@H]2F)cc1I	> 100	> 100	> 100	> 100	> 100	> 100	> 100	> 100	> 100	> 100	> 100	–	–	–	–	–	–	–	–	–
COc1cc(S(=O)(=O)Nc2ccc(-c3csc(N4C(=O)C(Cl)C4c4cccs4)n3)cc2)ccc1Cl (stereo not drawn)	> 100	> 100	68.3	> 100	> 100	> 100	–	> 100	> 100	> 100	> 100	–	–	–	–	–	–	–	–	–
N#Cc1c(-c2ccc([N+](=O)[O-])cc2)cc(-c2ccc(Nc3ccnc4cc(Cl)ccc34)cc2)nc1N	26	51.7	3.02	> 64.1	> 33.1	42.2	2.82	45.6	5.4	41.9	15	–	–	–	–	–	–	–	–	–

SMILES	TGI [1] [µM]	TGI [2] [µM]	TGI [3] [µM]	TGI [4] [µM]	TGI [5] [µM]	TGI [6] [µM]	TGI [7] [µM]	TGI [8] [µM]	TGI [9] [µM]	TGI [10] [µM]	TGI [11] [µM]	GI50 [1] [µM]	GI50 [2] [µM]	GI50 [5] [µM]	GI50 [6] [µM]	GI50 [7] [µM]	GI50 [8] [µM]	GI50 [9] [µM]	GI50 [10] [µM]	GI50 [11] [µM]
Cc1cc(C)nc(NS(=O)(=O)c2ccc(NC(=O)c3cc([N+](=O)[O-])cc([N+](=O)[O-])c3)cc2)n1	> 100	> 100	> 100	> 100	> 100	> 100	> 100	–	13.5	> 100	> 100	–	–	–	–	–	–	–	–	–
CNC(=S)/C(C#N)=C(\N)N1CCCC1	> 100	> 100	> 100	> 100	> 100	> 100	> 100	> 100	> 100	–	> 100	–	–	–	–	–	–	–	–	–
CC1(C)OC2OC(COC(=O)c3ccc(C#N)cc3)C3OC(C)(C)OC3C2O1 (stereo not drawn)	–	> 75	> 75	> 75	> 75	> 75	> 75	> 75	> 75	> 75	> 75	–	–	–	–	–	–	–	–	–
CN1NC(c2ccccc2)=C(C#N)C(=O)CC1c1ccc(Br)cc1 (stereo not drawn)	83	> 100	–	–	–	> 100	–	73.7	–	45.8	–	–	–	–	–	–	–	–	–	–
COc1ccc(/C(Cl)=C(\C=O)c2ccc(Cl)cc2)cc1OC	7.74	54.3	–	39.9	71.3	> 100	14.7	> 100	6.62	97.3	30.1	–	–	–	–	–	–	–	–	–
COc1cc(OC)c(C2(c3c(OC(C)C)c(=O)c3=O)SCCCS2)cc1OC	> 100	> 100	> 100	> 100	> 100	> 100	> 100	> 100	–	> 100	> 100	–	–	–	–	–	–	–	–	–
Cc1ccc(C2C(Cl)C(=O)N2NC(=O)c2ccc(N)cc2)cc1 (stereo not drawn)	31.2	56.4	37.8	31.4	61.2	–	28.3	47.9	35.3	36.6	25.2	–	–	–	–	–	–	–	–	–
COc1ccc2c3c1OC1C(OC)(OC)CC4(C=C2)CN(C)CCC314 (stereo not drawn)	> 100	> 100	> 100	> 100	> 100	> 100	> 100	> 100	> 100	–	> 100	–	–	–	–	–	–	–	–	–
CCN(CC)CCN1C(=O)C(=O)N(c2cccc3ccccc23)C1=O	> 10	> 10	–	> 10	> 10	> 10	> 10	> 10	> 10	> 10	> 10	–	–	–	–	–	–	–	–	–
CCOC(=O)C1(C(=O)OCC)C=C(c2ccccc2)N(C2OC(COC(C)=O)C(OC(C)=O)C(OC(C)=O)C2OC(C)=O)C1=S (stereo not drawn)	81.5	> 100	> 100	> 100	–	> 100	> 100	> 100	> 100	> 100	> 100	–	–	–	–	–	–	–	–	–
O=C1NC(=Nc2ccccc2)C(=Nc2ccccc2)N1c1ccccc1	52.8	31	29	25.3	72.2	34	28.9	32.7	72.8	–	31	–	–	–	–	–	–	–	–	–
COc1ccc(CCN2C(=O)CC34C=CC(CC3C2=O)O4)cc1OC (stereo not drawn)	> 100	> 100	> 100	> 100	> 100	–	> 100	> 100	> 100	> 100	> 100	–	–	–	–	–	–	–	–	–
NCCCCC(NC(=O)C(N)Cc1ccc(O)cc1)C(=O)NC(Cc1ccc(O)cc1)C(=O)NC(CCCCN)C(=O)ON1C(=O)CCC1=O (stereo not drawn) (H-YKYK-OSu; configuration not given here)	> 100	> 100	> 100	> 100	> 100	–	> 100	> 100	> 100	> 100	> 100	–	–	–	–	–	–	–	–	–
C/C(=N\NC(N)=S)c1sc(-n2nc(-c3ccccc3)cc2-c2ccccc2)nc1C	> 100	> 100	> 100	> 100	–	> 100	> 100	> 100	> 100	> 100	> 100	–	–	–	–	–	–	–	–	–
CCn1c(CSc2nc(-c3ccccc3)c(-c3ccccc3)[nH]2)n[nH]c1=S	> 100	> 100	> 100	–	–	> 100	> 100	> 100	> 100	> 100	> 100	–	–	–	–	–	–	–	–	–
COc1ccc2c(c1OC)C(=O)O[C@@H]2[C@H]1c2c(cc3c(c2OC)OCO3)CCN1C	–	> 100	> 100	> 100	> 100	> 100	> 100	> 100	> 100	> 100	> 100	–	–	–	–	–	–	–	–	–
COc1cc(OC)c(OC)cc1/C=C/c1cc[n+](C)c2ccccc12	33	> 100	> 100	–	19.4	> 100	> 100	> 100	> 100	> 100	> 100	–	–	–	–	–	–	–	–	–
[N-]=[N+]=Nc1ccc2c(c1)Sc1ccccc1N2CCCCN1CCN(C(=O)CCNC(=O)Cc2ccc(C(=O)c3ccccc3)cc2)CC1	5.57	> 35.9	22.9	19.6	–	16	> 24.6	51.4	5.86	11.8	> 35.5	–	–	–	–	–	–	–	–	–
O=c1c2c3c(sc2nc2n1N=CN(c1ccc(F)cc1)C2)CCCC3	–	> 100	> 100	> 100	> 100	> 100	> 100	> 100	> 100	> 100	> 100	–	–	–	–	–	–	–	–	–
CCC(=O)Nc1ccc(NCC(=O)Nc2ccc(OC)cc2)cc1	> 100	87.9	46.4	56.7	> 100	39.7	–	37.2	> 100	> 100	78	–	–	–	–	–	–	–	–	–
